Measurements: ChEMBL document CHEMBL5233217, “Modification of 7-piperazinylquinolone antibacterials to promising anticancer lead compounds: Synthesis and in vitro studies” (Eur J Med Chem, 2020)
One block for each compound: values may come before it.

Tests used:
HL-60 [1] = assay: Antiproliferative activity against human HL-60 cells assessed as reduction in cell viability; type: functional, cell-based
L1210 [2] = assay: Antiproliferative activity against mouse L1210 cells assessed as reduction in cell viability; type: functional, cell-based
Hep 3B2 [3] = assay: Antiproliferative activity against human Hep3B cells assessed as reduction in cell viability; type: functional, cell-based
SMMC-7721 [4] = assay: Antiproliferative activity against human SMMC-7721 cells assessed as reduction in cell viability; type: functional, cell-based
CAPAN-1 [5] = assay: Antiproliferative activity against human CAPAN-1 cells assessed as reduction in cell viability; type: functional, cell-based
L1210 [6] = assay: Anticancer activity against mouse L1210 cells assessed as reduction in cell viability by MTT assay; type: functional, cell-based
Huh-7 = assay: Anticancer activity against human Huh-7 cells assessed as reduction in cell viability incubated for 24 hrs by MTT assay; type: functional, cell-based; settings: Huh-7, 24 h
CAPAN-1 [7] = assay: Antitumor activity against human CAPAN-1 cells assessed as reduction in cell viability by MTT assay; type: functional, cell-based
HL-60 [8] = assay: Antitumor activity against human HL-60 cells assessed as reduction in cell viability by MTT assay; type: functional, cell-based
L1210 [9] = assay: Antitumor activity against mouse L1210 cells assessed as reduction in cell viability by MTT assay; type: functional, cell-based
SMMC-7721 [10] = assay: Antitumor activity against human SMMC-7721 cells assessed as reduction in cell viability by MTT assay; type: functional, cell-based
Hep 3B2 [11] = assay: Antitumor activity against human Hep3B cells assessed as reduction in cell viability by MTT assay; type: functional, cell-based
NCI-H460 = assay: Antiproliferative activity against human NCI-H460 cells assessed as inhibition of cell proliferation by CCK-8 assay; type: functional, cell-based
PC-3 = assay: Antiproliferative activity against human PC-3 cells assessed as inhibition of cell proliferation by CCK-8 assay; type: functional, cell-based
HepG2 = assay: Antiproliferative activity against human HepG2 cells assessed as inhibition of cell proliferation by CCK-8 assay; type: functional, cell-based
MGC-803 = assay: Antiproliferative activity against human MGC-803 cells assessed as inhibition of cell proliferation by CCK-8 assay; type: functional, cell-based
MCF7 [12] = assay: Antiproliferative activity against human MCF7 cells assessed as inhibition of cell proliferation by CCK-8 assay; type: functional, cell-based
SW-620 = assay: Antiproliferative activity against human SW620 cells assessed as inhibition of cell proliferation by CCK-8 assay; type: functional, cell-based
L1210 [13] = assay: Antiproliferative activity against mouse L1210 cells assessed as reduction in cell viability incubated for 48 hrs by MTT assay; type: functional, cell-based; settings: L1210, 48 h
CAKI-1 = assay: Anticancer activity against human CAKI-1 cells assessed as cell growth inhibition; type: functional; settings: pooled result: one value given for 3 cell lines, strains, targets or settings
[14] = Cytotoxicity against mouse BMSC cells assessed as reduction in cell viability incubated for 48 hrs by MTT assay; type: toxicity, cell-based
MCF7 [15] = assay: Antiproliferative activity against human MCF7 cells assessed as reduction in cell viability incubated for 48 hrs by MTT assay; type: functional, cell-based; settings: MCF7, 48 h
HCT-8 = assay: Antiproliferative activity against human HCT-8 cells assessed as reduction in cell viability incubated for 48 hrs by MTT assay; type: functional, cell-based; settings: HCT-8, 48 h
Hep 3B2 [16] = assay: Antiproliferative activity against human Hep3B cells assessed as reduction in cell viability incubated for 48 hrs by MTT assay; type: functional, cell-based
SMMC-7721 [17] = assay: Antiproliferative activity against human SMMC-7721 cells assessed as reduction in cell viability incubated for 48 hrs by MTT assay; type: functional, cell-based; settings: SMMC-7721, 48 h

IC50 (HL-60 [1]): 3800 nM
IC50 (L1210 [2]): 3800 nM
IC50 (SMMC-7721 [4]): 3800 nM
Compound: CCn1cc(-c2nnc(SCc3nnc(-c4ccccc4OC)o3)[nH]2)c(=O)c2cc(F)c(N3CCN(C)CC3)cc21
IC50 (Hep 3B2 [3]): 3800 nM
IC50 (CAPAN-1 [5]): 3800 nM

IC50 (L1210 [6]): 1800 nM
Compound: CC1COc2c(N3CCN(C)CC3)c(F)cc3c(=O)c(-c4nnc5n4N=C(c4ccc(O)c(O)c4)CS5)cn1c23 (stereo not drawn)

Compound: Nc1nnc(-c2cn(C3CC3)c3cc(N4CCNCC4)c(F)cc3c2=O)s1
IC50 (Huh-7): 25800 nM

IC50 (HL-60 [8]): 26700 nM
IC50 (L1210 [9]): 26700 nM
IC50 (SMMC-7721 [10]): 26700 nM
Compound: COc1ccc(-c2csc3nc(-c4cn5c6c(c(N7CCN(C)CC7)c(F)cc6c4=O)OCC5C)nn23)cc1 (stereo not drawn)
IC50 (CAPAN-1 [7]): 26700 nM
IC50 (Hep 3B2 [11]): 26700 nM

IC50 (NCI-H460): 600 nM
IC50 (PC-3): 600 nM
IC50 (HepG2): 600 nM
IC50 (MGC-803): 600 nM
IC50 (MCF7 [12]): 600 nM
IC50 (SW-620): 600 nM
Compound: C[C@H]1COc2c(N3CCN(C)CC3)c(F)cc3c(=O)c(-c4nnc(NC(=O)CCCCCCC(=O)NO)s4)cn1c23

IC50 (L1210 [13]): 1500 nM
Compound: C[C@H]1COc2c(N3CCN(C)CC3)c(F)cc3c(=O)c(-c4nn5c(-c6cn(C7CC7)c7cc(N8CCNCC8)c(F)cc7c6=O)nnc5s4)cn1c23

Compound: C=C1CC(CN2CCN(c3cc4c(cc3F)c(=O)c(C(=O)O)cn4CC)CC2)(c2ccccc2)OC1=O (stereo not drawn)
GI50 (CAKI-1): 3390 nM

IC50 (L1210 [6]): 1200 nM
Compound: CC1COc2c(N3CCN(C)CC3)c(F)cc3c(=O)c(-c4n[nH]c5cc(-c6ccc(O)c(O)c6)nn45)cn1c23 (stereo not drawn)

IC50 (MCF7 [15]): 2210 nM
IC50 (HCT-8): 2210 nM
IC50 (SMMC-7721 [17]): 2210 nM
Compound: COc1cc(/C=N/NC(=O)c2cn3c4c(c(N5CCN(C)CC5)c(F)cc4c2=O)OC[C@@H]3C)cc(OC)c1OC
IC50 at 48 h [14]: 7460 nM
IC50 (Hep 3B2 [16]): 2210 nM

IC50 (L1210 [6]): 140 nM
Compound: O=c1c(-c2n[nH]c3cc(-c4ccc(O)c(O)c4)nn23)cn(C2CC2)c2cc(N3CCNCC3)c(F)cc12

Compound: C=C1CC(CN2CCN(c3cc4c(cc3F)c(=O)c(C(=O)O)cn4CC)CC2)(c2ccc(OC)cc2)OC1=O (stereo not drawn)
GI50 (CAKI-1): 6460 nM
